Data published in patent publication US20130205438A1, “DOUBLING OF CHROMOSOMES IN HAPLOID EMBRYOS” (PIONEER HI BRED INTERNATIONAL INC, priority 2005, published 2013).
Marks after values point to notes of the source that are not given here.

Columns and labels:
Format in all cases: in vivo
[1] = system: haploid embryos of maize plant "A"; experiment: Chromosome doubling of isolated haploid immature maize embryos on colchicine medium (Example 2); conditions: 0.05% colchicine, 24 hours
Description: A diploid maize plant, “A”, was pollinated with a haploid inducer line containing GFP. Immature embryos were isolated at 12 days after pollination and the embryo size is ranged from 1.9-2.0 mm long. The diploid embryos, GFP expressing embryos, were discarded. The haploid embryos, based on the absence of the GFP marker expression, were cultured on a medium comprising MS salts, MS vitamins, thiamine, asparagine, BAP, sucrose, gelrite, and 0.05% colchicine with scutellum side up for 24 hours at 26 C in the dark. […] This medium comprised MS salts, MS vitamins, myo-inositol, sucrose, and gelrite. The plantlets germinated from these treated embryos, were transferred to a light culture room at 26 C for another 2 -3 weeks until healthy plantlets with good roots developed. These plantlets were transferred to soil and grown in a regular greenhouse to maturation. The plants were self-pollinated and the mature seeds will be harvested. The harvested seed from each plant will be grown as an ear-row and the plants will examined for uniformity of the plant morphology within each ear-row.

[2] = system: haploid embryos of maize lines "B" and "C"; experiment: Chromosome doubling of isolated haploid immature maize embryos on pronamide medium (Example 3); conditions: 6 uM pronamide, 48 hours
Description: Two different diploid maize lines, “B” and “C” were pollinated with a haploid inducer line, containing homozygousGFP. Immature embryos were isolated at 11 days after pollination and embryo size ranged from 1.5-1.6 mm in length. The diploid embryos, embryos showing GFP expression, were discarded. The haploid embryos, embryos not expressing GFP, were cultured on a modified MS medium containing 6 uM pronamide with scutellum side up for 48 hours at 26 C in dark. Alter approximately 48 hours the embryos were transferred to a modified MS medium without any doubling agent. Embryos were placed with scutellum side down for 6-10 days at 26 C in the dark. The plantlets germinated torn these treated embryos were then moved into a light culture room at 28 C for another 3 weeks till healthy plantlets with good roots developed. These plantlets were then transferred to soil and grown in a regular greenhouse to maturation. The plants were self pollinated and the mature seeds will be harvested. The harvested seed will be planted as an ear-row. The plants within a row will be examined for uniformity of the plant morphology.

[3] = system: immature embryos of hybrid maize plants pollinated with maternal-haploid-inducing line; experiment: Testing different hybrids and timing of doubling agent (Example 9)
Description: A maternal-haploid-inducing maize line was used to pollinate 4 different hybrid plants. The immature embryos derived from these crosses were isolated and placed directly on embryo rescue medium containing 5 uM pronamide. Embryos were kept on the pronamide medium for approximately 36 or 48 hours before being transferred to new media without the doubling agent.
The plantlets germinated from these treated embryos were then transferred into tubes until healthy plantlets with good roofs developed. These plantlets were then transferred to soil and grown in a regular greenhouse to maturation. The plants were self-pollinated and the mature seeds were harvested.

[4] = system: ears of hybrid maize plants pollinated by haploid inducer plants; experiment: Immature ear treatment for haploid doubling, ear/stalk in liquid medium with Pronamide (Example 6); conditions: 5 uM Pronamide, 0.5% DMSO, one day
From the text: Hybrid maize plants were pollinated by haploid inducer plants. The ears with part of the stalks attached were harvested from the hybrid plants 4-6 days after pollination (embryo length less than 0.4 mm). The stalks were about 4-8 inches long on each side of where the ears were attached. The ears and the attached stalks are surface sterilized with 70% ethanol or 5% Chlorox. The lower ends of the stalks containing the ears were emerged into liquid medium containing MS medium, MS vitamins, sucrose, etc and 5 uM Pronamide, 0.5% DM SO for one day at 26 C. Then the ears still contained an the stalks were moved to a fresh medium containing MS medium, MS vitamins, sucrose etc. without doubling agent to allow the embryos and kernels to develop. The embryos within the ear can be isolated at any time after doubling. Embryo rescue can then be used to germinate immature embryos into plants. The germinated plants were grown to examine fertility.

[5] = Ear 1, ear/stalk harvest 6 days after pollination
[6] = Ear 2, ear/stalk harvest 6 days after pollination
[7] = Ear 3, ear/stalk harvest 5 days after pollination
[8] = Ear 4, ear/stalk harvest 4 days after pollination

For `COc1cc2c(c(OC)c1OC)-c1ccc(OC)c(=O)cc1[C@@H](NC(C)=O)CC2` [colchicine, (S)-N-(5,6,7,9-tetrahydro-1,2,3,10-tetramethoxy-9-oxobenzo (a)heptalen-7-yl) acetamide], the “Fully Fertile Plants” value ([1]; Ear 1, 3 haploid embryos) was 2, the “Fully Fertile Plants” value ([1]; Ear 2, 7 haploid embryos) was 4* and the “Fully Fertile Plants” value ([1]; Ear 3, 9 haploid embryos) was 8. For the same compound, the “Fully Fertile Plants, percent of plantlets to greenhouse” value ([1]; Sum of 3 ears) was “(93.3%)”, the “Plantlets Germinated, percent of haploid embryos” value ([1]; Sum of 3 ears) was “(84.2%)” and the “Fully Fertile Plants” value ([1]; Sum of 3 ears, 19 haploid embryos) was 14.
In the case of `C#CC(C)(C)NC(=O)c1cc(Cl)cc(Cl)c1` [pronamide, 3,5-dichloro-N-(1,1-dimethyl-2-propynyl)benzamide], the “Fully Fertile Plant” value ([2]; Line B, 11 haploid embryos) is reported as 2*, the “Fully Fertile Plant” value ([2]; Line C, 4 haploid embryos) is reported as 3 and the “Fully Fertile Plant, percent of plantlets to greenhouse” value ([2]; Sum of lines B and C) is reported as “(83.3%)”. The “Plantlet Germinated, percent of haploid embryos” value ([2]; Sum of lines B and C) was “(53.3%)”, the “Fully Fertile Plant” value ([2]; Sum of lines B and C, 15 haploid embryos) was 5 and the “# of Double Haploid Plants with Ears” value ([3]; 5 uM Pronamide 36 hours, Hybrid 1, 11 days after pollination, 100 embryos excised, embryo size 2.5 mm) was 1. The “# of Double Haploid Plants with Ears” value ([3]; 5 uM Pronamide 36 hours, Hybrid 1, 12 days after pollination, 300 embryos excised, embryo size 2.5 mm) was 1, the “# of Double Haploid Plants with Ears” value ([3]; 5 uM Pronamide 36 hours, Hybrid 2, 11 days after pollination, 176 embryos excised, embryo size 2.5-3 mm) was 4 and the “# of Double Haploid Plants with Ears” value ([3]; 5 uM Pronamide 36 hours, Hybrid 3, 12 days after pollination, 279 embryos excised, embryo size 2.5-3 mm) was 13. The “# of Double Haploid Plants with Ears” value ([3]; 5 uM Pronamide 36 hours, Hybrid 4, 12 days after pollination, 322 embryos excised, embryo size 2.5 mm) was 2, the “# of Double Haploid Plants with Ears” value ([3]; 5 uM Pronamide 48 hours, Hybrid 3, 10 days after pollination, 236 embryos excised, embryo size 2 mm) was 6 and the “# of Double Haploid Plants with Ears” value ([3]; 5 uM Pronamide 48 hours, Hybrid 4, 10 days after pollination, 144 embryos excised, embryo size 2 mm) was 3. For the same compound, the “Homozygosity of progeny of double haploid plants” value ([3]; 5 uM pronamide 36 or 48 hours, sample of plants, 120 molecular markers) was “confirmed for homozygosity”, the “% of plants with fertile tassel” value [4, 5] was 67% and the “Number of plants with fertile tassel” value [4, 5] was 16. For the same compound, the “Number of plants with sterile tassel” value [4, 5] was 8, the “% of plants with fertile tassel” value [4, 6] was 94% and the “Number of plants with fertile tassel” value [4, 6] was 30. For the same compound, the “Number of plants with sterile tassel” value [4, 6] was 2, the “% of plants with fertile tassel” value [4, 7] was 70% and the “Number of plants with fertile tassel” value [4, 7] was 14. The “Number of plants with sterile tassel” value [4, 7] was 6, the “% of plants with fertile tassel” value [4, 8] was 95% and the “Number of plants with fertile tassel” value [4, 8] was 19. The “Number of plants with sterile tassel” value [4, 8] was 1, the “% of plants with fertile tassel” value ([4]; Sum of 4 ears) was 82% and the “Number of plants with fertile tassel” value ([4]; Sum of 4 ears) was 79. The “Number of plants with sterile tassel” value ([4]; Sum of 4 ears) was 17.
